In ChEMBL document CHEMBL1130860, “Thrombin receptor (PAR-1) antagonists. Heterocycle-based peptidomimetics of the SFLLR agonist motif” (Bioorg Med Chem Lett, 1998):
Numbered stars: 1 amine (or outer) side, 2 acyl side, 3 side chain; on linkers, the order of the positions; unused ones are H or OH. Square brackets hold non-standard residues; d marks the D form. Peptide text beside a SMILES is read from it. * marks the point of attachment. ξ: configuration not given here. Phe(4-F)ψ(2,4-Thz) = O=C(c1csc([C@H](Cc2ccc(F)cc2)N[*:1])n1)[*:2]; Phe(4-guanidino) = N=C(N)Nc1ccc(C[C@H](N)C(=O)O)cc1; X1 = COc1ccc(C[C@H](N[*:1])c2nc(C(=O)[*:2])cs2)cc1; Phe(4-F) = N[C@@H](Cc1ccc(F)cc1)C(=O)O; hArg = N=C(N)NCCCC[C@H](N)C(=O)O; Cha = N[C@@H](CC1CCCCC1)C(=O)O; Nphe = O=C(O)CNCc1ccccc1; X2 = O=C(/C=C/c1ccccc1)*; ξV = CC(C)C(N)C(=O)O; Sar = CNCC(=O)O

Assays:
[1] = organism: Homo sapiens; test: Inhibition of alpha-thrombin-induced human gel filtered platelet aggregation (GFP).; format: functional
[2] = organism: Homo sapiens; test: Inhibition of TRAP-6 (SFLLRN-NH2)-induced human gel filtered platelet aggregation (GFP).; format: functional
[3] = target: T1, Proteinase-activated receptor 1 (Homo sapiens, UniProt P25116); test: Inhibition of [3H]S-(p-F-Phe)-Har-L-Har-KY-NH2 binding to a thrombin receptor (PAR-1) membrane preparation.
T1 sequence (P25116 whole entry): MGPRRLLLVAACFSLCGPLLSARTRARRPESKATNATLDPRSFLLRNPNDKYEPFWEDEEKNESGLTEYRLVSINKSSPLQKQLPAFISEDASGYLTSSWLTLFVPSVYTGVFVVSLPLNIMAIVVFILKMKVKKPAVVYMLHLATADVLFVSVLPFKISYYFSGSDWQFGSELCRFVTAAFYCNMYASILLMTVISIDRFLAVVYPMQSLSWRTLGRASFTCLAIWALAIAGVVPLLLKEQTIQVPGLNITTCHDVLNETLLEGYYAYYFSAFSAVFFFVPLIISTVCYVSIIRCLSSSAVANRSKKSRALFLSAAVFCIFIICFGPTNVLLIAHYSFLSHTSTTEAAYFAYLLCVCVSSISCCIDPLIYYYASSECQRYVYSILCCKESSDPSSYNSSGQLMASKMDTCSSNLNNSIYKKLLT

`NCC(=O)N[C@@H](Cc1ccc(F)cc1)c1nc(C(=O)N[C@@H](CC2CCCCC2)C(=O)N[C@@H](CCCN=C(N)N)C(N)=O)co1` gave an IC50 [1] of 19 µM, an IC50 [2] of 13 µM and an IC50 [3] of 6.2 µM.

`CNCC(=O)N[C@@H](Cc1ccc(F)cc1)c1nc(C(=O)N[C@H](CC2CCCCC2)C(=O)N[C@@H](CCCNC(=N)N)C(=O)N[C@@H](Cc2ccccc2)C(N)=O)cs1` gave an IC50 [1] of 96 µM, an IC50 [2] of 42 µM and an IC50 [3] of 94 µM.

`CNCC(=O)N[C@@H](Cc1ccc(F)cc1)c1nc(C(=O)N[C@@H](CC2CCCCC2)C(=O)N[C@@H](CCCNC(=N)N)C(=O)NCc2ccccc2)c(C)o1` was tested, and the IC50 [1] was 23 µM, the IC50 [2] was 18 µM and the IC50 [3] was 5 µM.

For `CNCC(=O)N[C@@H](Cc1ccc(F)cc1)c1nc(C(=O)N[C@@H](CC2CCCCC2)C(=O)N[C@@H](CCCN=C(N)N)C(=O)NCc2ccccc2)co1`, the IC50 [1] was 25 µM, the IC50 [2] was 6.6 µM and the IC50 [3] was 1.6 µM.

`NCC(=O)N[C@@H](Cc1ccc(F)cc1)c1nc(C(=O)N[C@@H](CC2CCCCC2)C(=O)N[C@@H](CCCN=C(N)N)C(=O)NCc2ccccc2)co1` showed an IC50 [1] of 17 µM, an IC50 [2] of 10 µM and an IC50 [3] of 5.4 µM.

`CC(C)C(N)C(=O)N[C@@H](Cc1ccc(F)cc1)c1nc(C(=O)N[C@@H](CC2CCCCC2)C(=O)N[C@@H](CCCN=C(N)N)C(=O)N[C@@H](Cc2ccccc2)C(N)=O)cs1` (stereo partly drawn) (H-[ξV][Phe(4-F)ψ(2,4-Thz)][Cha]RF-NH2) showed an IC50 [1] of 22 µM and an IC50 [2] of 4.6 µM.

Work on `CC[C@H](C)[C@H](N)C(=O)N[C@@H](Cc1ccc(F)cc1)c1nc(C(=O)N[C@@H](CC2CCCCC2)C(=O)N[C@@H](CCCN=C(N)N)C(=O)N[C@@H](Cc2ccccc2)C(N)=O)cs1` (H-I[Phe(4-F)ψ(2,4-Thz)][Cha]RF-NH2) yielded an IC50 [1] of 32 µM, an IC50 [2] of 4 µM and an IC50 [3] of 3.9 µM.

For `CC[C@H](C)[C@H](N)C(=O)N[C@@H](Cc1ccc(F)cc1)c1nc(C(=O)N(CC(=O)N[C@@H](CCCN=C(N)N)C(=O)N[C@@H](Cc2ccccc2)C(N)=O)Cc2ccccc2)cs1` (H-I[Phe(4-F)ψ(2,4-Thz)][Nphe]RF-NH2), the IC50 [1] was > 100 µM, the IC50 [2] was 80 µM and the IC50 [3] was > 100 µM.

`CC(C)C[C@H](NC(=O)[C@H](Cc1ccc(NC(=N)N)cc1)NC(=O)[C@H](Cc1ccc(F)cc1)NC(=O)/C=C/c1ccccc1)C(=O)N[C@@H](CCCN=C(N)N)C(=O)N[C@@H](CCCN=C(N)N)C(N)=O` (X2-[Phe(4-F)][Phe(4-guanidino)]LRR-NH2) showed an IC50 [2] of 0.021 µM and an IC50 [3] of 0.0075 µM.

With `CNCC(=O)N[C@@H](Cc1ccc(F)cc1)c1nc(C(=O)N[C@@H](CC2CCCCC2)C(=O)N[C@@H](CCCNC(=N)N)C(=O)NCc2ccccc2)cs1` the IC50 [1] was 27 µM, the IC50 [2] was 11 µM and the IC50 [3] was 10 µM.

In the case of `CNCC(=O)N[C@@H](Cc1ccc(F)cc1)c1nc(C(=O)N[C@@H](CCCN=C(N)N)C(=O)N[C@@H](CCCN=C(N)N)C(=O)N[C@@H](Cc2ccccc2)C(N)=O)cs1` (H-[Sar][Phe(4-F)ψ(2,4-Thz)]RRF-NH2), the IC50 [1] is reported as > 100 µM and the IC50 [2] is reported as > 100 µM.

Work on `Cc1oc([C@H](Cc2ccc(F)cc2)NC(=O)C(N)CN)nc1C(=O)N[C@@H](CC1CCCCC1)C(=O)N[C@@H](CCCN=C(N)N)C(=O)NCc1ccccc1` (stereo partly drawn) yielded an IC50 [1] of 24 µM, an IC50 [2] of 25 µM and an IC50 [3] of 53 µM.

With `CNCC(=O)N[C@@H](Cc1ccccc1)c1nc(C(=O)N[C@@H](CC2CCCCC2)C(=O)N[C@@H](CCCNC(=N)N)C(=O)NCc2ccccc2)c(C)o1` the IC50 [1] was 45 µM, the IC50 [2] was 36 µM and the IC50 [3] was 60 µM.

`CNCC(=O)N[C@@H](Cc1ccc(F)cc1)c1nc(C(=O)N[C@@H](CC2CCCCC2)C(=O)N[C@@H](CCCN=C(N)N)C(=O)NCCc2ccccc2)cs1` was tested, and the IC50 [1] was 27 µM, the IC50 [2] was 10 µM and the IC50 [3] was 5.6 µM.

In the case of `CC(=O)N[C@@H](Cc1ccc(F)cc1)c1nc(C(=O)N[C@@H](CC2CCCCC2)C(=O)N[C@@H](CCCNC(=N)N)C(=O)NCc2ccccc2)c(C)o1`, the IC50 [1] is reported as 18 µM, the IC50 [2] is reported as 19 µM and the IC50 [3] is reported as 30 µM.

With `CNCC(=O)N[C@@H](Cc1ccc(F)cc1)c1nc(C(=O)N[C@@H](CCCNC(=N)N)C(=O)N[C@@H](CCCNC(=N)N)C(=O)N[C@@H](Cc2ccccc2)C(N)=O)cs1` (H-[Sar][Phe(4-F)ψ(2,4-Thz)]RRF-NH2) the IC50 [3] was > 100 µM.

For `CNCC(=O)N[C@@H](Cc1ccc(F)cc1)c1nc(C(=O)N[C@@H](CC2CCCCC2)C(=O)N[C@@H](CCCNC(=N)N)C(=O)N[C@@H](CC2CCCCC2)C(N)=O)cs1` (H-[Sar][Phe(4-F)ψ(2,4-Thz)][Cha]R[Cha]-NH2), the IC50 [3] was 2.7 µM.

Work on `COc1ccc(C[C@H](NC(=O)C(N)C(C)C)c2nc(C(=O)N[C@@H](CC3CCCCC3)C(=O)N[C@@H](CCCNC(=N)N)C(=O)N[C@@H](Cc3ccccc3)C(N)=O)cs2)cc1` (stereo partly drawn) (H-[ξV][X1][Cha]RF-NH2) yielded an IC50 [3] of 8.2 µM.

For `CNCC(=O)N[C@@H](Cc1ccc(F)cc1)c1nc(C(=O)N[C@@H](CCCCN)C(=O)N[C@@H](CCCNC(=N)N)C(=O)NCCc2ccccc2)cs1`, the IC50 [1] was > 100 µM, the IC50 [2] was > 100 µM and the IC50 [3] was > 100 µM.

For `COc1ccc(C[C@H](NC(=O)C(N)C(C)C)c2nc(C(=O)N[C@@H](CC3CCCCC3)C(=O)N[C@@H](CCCN=C(N)N)C(=O)N[C@@H](Cc3ccccc3)C(N)=O)cs2)cc1` (stereo partly drawn) (H-[ξV][X1][Cha]RF-NH2), the IC50 [1] was 49 µM and the IC50 [2] was 9.5 µM.

`CNCC(=O)N[C@@H](Cc1ccc(F)cc1)c1nc(C(=O)N[C@@H](CC2CCCCC2)C(=O)N[C@@H](CCCN=C(N)N)C(=O)N[C@@H](Cc2ccccc2)C(N)=O)cs1` showed an IC50 [1] of 41 µM, an IC50 [2] of 14 µM and an IC50 [3] of 5.7 µM.

Work on `CNCC(=O)N[C@@H](Cc1ccc(F)cc1)c1nc(C(=O)N[C@@H](CC2CCCCC2)C(=O)N[C@@H](CCCN=C(N)N)C(=O)N[C@@H](Cc2ccc(O)cc2)C(N)=O)cs1` (H-[Sar][Phe(4-F)ψ(2,4-Thz)][Cha]RY-NH2) yielded an IC50 [1] of 45 µM, an IC50 [2] of 5.5 µM and an IC50 [3] of 4.1 µM.

For `CNCC(=O)N[C@@H](Cc1ccc(F)cc1)c1nc(C(=O)N2CCCC(C(=O)N[C@@H](CCCNC(=N)N)C(=O)N[C@@H](Cc3ccccc3)C(N)=O)C2)cs1` (stereo partly drawn), the IC50 [1] was > 100 µM, the IC50 [2] was > 100 µM and the IC50 [3] was > 100 µM.

With `CNCC(=O)N[C@@H](Cc1ccc(F)cc1)c1nc(C(=O)N[C@@H](Cc2ccccc2)C(=O)N[C@@H](CCCN=C(N)N)C(=O)NCc2ccccc2)cs1` the IC50 [1] was 46 µM, the IC50 [2] was 13 µM and the IC50 [3] was 24 µM.

`CC(C)C(N)C(=O)N[C@@H](Cc1ccc(F)cc1)c1nc(C(=O)N[C@@H](CC2CCCCC2)C(=O)N[C@@H](CCCNC(=N)N)C(=O)N[C@@H](Cc2ccccc2)C(N)=O)cs1` (stereo partly drawn) (H-[ξV][Phe(4-F)ψ(2,4-Thz)][Cha]RF-NH2) gave an IC50 [3] of 2.7 µM.

In the case of `CNCC(=O)N[C@@H](Cc1ccc(F)cc1)c1nc(C(=O)N[C@@H](CC2CCCCC2)C(=O)N[C@@H](CCCCN=C(N)N)C(=O)N[C@@H](Cc2ccccc2)C(N)=O)cs1` (H-[Sar][Phe(4-F)ψ(2,4-Thz)][Cha][hArg]F-NH2), the IC50 [1] is reported as 59 µM and the IC50 [2] is reported as 7.7 µM.

`NCCC(=O)N[C@@H](Cc1ccc(F)cc1)c1nc(C(=O)N[C@@H](CC2CCCCC2)C(=O)N[C@@H](CCCN=C(N)N)C(=O)NCc2ccccc2)co1` was tested, and the IC50 [1] was > 100 µM, the IC50 [2] was 36 µM and the IC50 [3] was 6.7 µM.

With `NC(=O)[C@H](Cc1ccccc1)NC(=O)[C@H](CCCN=C(N)N)NC(=O)[C@H](CC1CCCCC1)NC(=O)c1csc([C@@H](N)Cc2ccc(F)cc2)n1` the IC50 [1] was 28 µM, the IC50 [2] was 16 µM and the IC50 [3] was 8 µM.

Molecule `CNCC(=O)N[C@@H](Cc1ccc(F)cc1)c1nc(C(=O)N[C@@H](CC2CCCCC2)C(=O)N[C@@H](CCCNC(=N)N)C(=O)NCC(C)c2ccccc2)cs1` (stereo partly drawn) has an IC50 [1] of 40 µM, an IC50 [2] of 16 µM and an IC50 [3] of 24 µM.

`CNCC(=O)N[C@@H](Cc1ccc(F)cc1)c1nc(C(=O)N[C@@H](CC2CCCCC2)C(=O)N[C@@H](CCCN=C(N)N)C(=O)N[C@@H](CC2CCCCC2)C(N)=O)cs1` (H-[Sar][Phe(4-F)ψ(2,4-Thz)][Cha]R[Cha]-NH2) showed an IC50 [1] of 46 µM and an IC50 [2] of 6.8 µM.

`CC(C)C[C@H](NC(=O)[C@H](CC(C)C)NC(=O)[C@H](Cc1ccccc1)NC(=O)[C@@H](N)CO)C(=O)N[C@@H](CCCN=C(N)N)C(=O)N[C@@H](CC(N)=O)C(N)=O` gave an IC50 [2] of 0.3 µM and an IC50 [3] of 73 µM.
